System: MCF-7 breast cancer cells
Assay: Microarray gene expression analysis (Agilent whole human genome 4 x 44K; compound vs DMSO, LIMMA log2 fold change)
Assay type: cell-based
Conditions: cell cycle genes

Compound: Oc1cccc(-c2nc(N3CCOCC3)c3oc4ncccc4c3n2)c1 [PI-103]
- CDC25B log2FC (Gene 994): -0.0551
- CDC25C log2FC (Gene 995): 1.56
- CDC34 log2FC (Gene 997): 0.51
- CDC42 log2FC (Gene 998): 0.08
- CDK2 log2FC (Gene 1017): -0.44
- CDK3 log2FC (Gene 1018): -0.00896
- CDK4 log2FC (Gene 1019): 0.17
- CDK5 log2FC (Gene 1020): 0.18
- CDK7 log2FC (Gene 1022): 0.77
- CDKN1A log2FC (Gene 1026): -1.23
- CDKN1B log2FC (Gene 1027): 1.12
- CDKN1C log2FC (Gene 1028): 0.88
- CDKN2A log2FC (Gene 1029): 0.30
- CDKN2D log2FC (Gene 1032): 0.90
- CDKN3 log2FC (Gene 1033): 0.04
- CENPA log2FC (Gene 1058): 0.29
- CENPE log2FC (Gene 1062): 1.00
- CENPF log2FC (Gene 1063): 1.50
- CETN2 log2FC (Gene 1069): 0.12
- CHD3 log2FC (Gene 1107): -0.15
- CHEK1 log2FC (Gene 1111): 0.38
- CKS1B log2FC (Gene 1163): 0.12
- CKS2 log2FC (Gene 1164): -0.62
- CLTC log2FC (Gene 1213): 0.15
- PLK3 log2FC (Gene 1263): -1.59
- ATF2 log2FC (Gene 1386): 0.88
- CREBL2 log2FC (Gene 1389): 0.85
- MAPK14 log2FC (Gene 1432): -0.30
- CSNK1A1 log2FC (Gene 1452): -0.04
- CSNK1D log2FC (Gene 1453): -0.30
- CSNK1E log2FC (Gene 1454): -0.52
- CSNK2A1 log2FC (Gene 1457): -0.65
- CTBP1 log2FC (Gene 1487): -0.24
- CTGF log2FC (Gene 1490): -0.35
- CYLD log2FC (Gene 1540): 0.38
- CYP27B1 log2FC (Gene 1594): -0.17
- DAPK3 log2FC (Gene 1613): -0.075
- DDB1 log2FC (Gene 1642): 0.26
- DDIT3 log2FC (Gene 1649): 2.08
- DDX3X log2FC (Gene 1654): -1.13
- DHCR24 log2FC (Gene 1718): -0.73
- DHFR log2FC (Gene 1719): 0.49
- DLG1 log2FC (Gene 1739): 0.12
- DMRT1 log2FC (Gene 1761): 0.0553
- DYNC1I2 log2FC (Gene 1781): 0.63
- DNM2 log2FC (Gene 1785): 0.27
- DRD3 log2FC (Gene 1814): -0.0531
- DUSP1 log2FC (Gene 1843): -0.80
- DUSP3 log2FC (Gene 1845): 0.48
- DYRK1A log2FC (Gene 1859): 0.34
- E2F1 log2FC (Gene 1869): -0.12
- E2F2 log2FC (Gene 1870): -0.38
- E2F3 log2FC (Gene 1871): -0.42
- E2F4 log2FC (Gene 1874): -0.66
- E2F5 log2FC (Gene 1875): 0.15
- E2F6 log2FC (Gene 1876): -0.52
- E4F1 log2FC (Gene 1877): 0.31
- ECT2 log2FC (Gene 1894): 0.84
- EDN3 log2FC (Gene 1908): -0.022
- EGF log2FC (Gene 1950): -0.01
- EGFR log2FC (Gene 1956): 0.48
- EIF4EBP1 log2FC (Gene 1978): 0.0433
- EIF4G2 log2FC (Gene 1982): -0.10
- EMD log2FC (Gene 2010): -0.12
- ENSA log2FC (Gene 2029): -0.0565
- EPS8 log2FC (Gene 2059): 0.46
- ERCC2 log2FC (Gene 2068): -0.27
- ERCC3 log2FC (Gene 2071): -0.11
- ERCC4 log2FC (Gene 2072): 0.06
- ERF log2FC (Gene 2077): 0.40
- ERH log2FC (Gene 2079): -0.38
- ERN1 log2FC (Gene 2081): -0.11
- ETS1 log2FC (Gene 2113): -0.82
- EZH2 log2FC (Gene 2146): 0.46
- FANCG log2FC (Gene 2189): 0.0225
- FEN1 log2FC (Gene 2237): -1.06
- FER log2FC (Gene 2241): 0.26
- FGF2 log2FC (Gene 2247): 0.18
- FGF8 log2FC (Gene 2253): -0.13
- FGF10 log2FC (Gene 2255): -0.00185
- FGFR1 log2FC (Gene 2260): -0.37
- FGFR3 log2FC (Gene 2261): -0.16
- FGFR2 log2FC (Gene 2263): 1.81
- FHL1 log2FC (Gene 2273): -0.0644
- FOXC1 log2FC (Gene 2296): -0.77
- FOXM1 log2FC (Gene 2305): -0.022
- FLNA log2FC (Gene 2316): -0.0267
- FNTB log2FC (Gene 2342): -0.45
- GAS1 log2FC (Gene 2619): 0.76
- GAS2 log2FC (Gene 2620): 0.15
- GAS6 log2FC (Gene 2621): -0.10
- GFI1 log2FC (Gene 2672): 0.03
- GNAI1 log2FC (Gene 2770): 1.07
- GNAI2 log2FC (Gene 2771): -0.26
- GNAI3 log2FC (Gene 2773): 0.53
- SFN log2FC (Gene 2810): -1.15
- GPR3 log2FC (Gene 2827): -0.30
- GPS1 log2FC (Gene 2873): 0.025
- GPS2 log2FC (Gene 2874): 0.19
- GSK3B log2FC (Gene 2932): -0.45
- GSPT1 log2FC (Gene 2935): -0.35
- MSH6 log2FC (Gene 2956): -0.0751
- GTF2H1 log2FC (Gene 2965): 0.32
- H2AFX log2FC (Gene 3014): -0.94
- HCFC1 log2FC (Gene 3054): -0.62
- HDAC1 log2FC (Gene 3065): -0.55
- HDAC2 log2FC (Gene 3066): 0.06
- HGF log2FC (Gene 3082): -0.20
- HHEX log2FC (Gene 3087): -0.29
- FOXA1 log2FC (Gene 3169): 0.13
- HOXA13 log2FC (Gene 3209): 0.04
- HRAS log2FC (Gene 3265): -0.76
- PRMT2 log2FC (Gene 3275): 0.29
- HES1 log2FC (Gene 3280): -1.26
- HSF1 log2FC (Gene 3297): 0.25
- HSPA2 log2FC (Gene 3306): -1.30
- HSP90AA1 log2FC (Gene 3320): 0.72
- ID2 log2FC (Gene 3398): 1.14
- ID3 log2FC (Gene 3399): -0.08
- IFNG log2FC (Gene 3458): -0.04
- IGF1 log2FC (Gene 3479): 0.05
- IGF1R log2FC (Gene 3480): 0.08
- IGF2 log2FC (Gene 3481): 0.0241
- IL1A log2FC (Gene 3552): -0.07
- IL1B log2FC (Gene 3553): 0.035
- IL8 log2FC (Gene 3576): -1.30
- IL12B log2FC (Gene 3593): -0.0227
- ILF3 log2FC (Gene 3609): -0.47
- ILK log2FC (Gene 3611): -0.0473
- INCENP log2FC (Gene 3619): 0.13
- ING2 log2FC (Gene 3622): 0.26
- INHA log2FC (Gene 3623): -0.06
- INSM1 log2FC (Gene 3642): -0.06
- INSR log2FC (Gene 3643): 0.74
- IRF6 log2FC (Gene 3664): 0.56
- ITGB1 log2FC (Gene 3688): 0.58
- JUN log2FC (Gene 3725): -0.94
- JUNB log2FC (Gene 3726): -0.65
- KIF11 log2FC (Gene 3832): 0.83
- KRT18 log2FC (Gene 3875): -0.44
- STMN1 log2FC (Gene 3925): 0.33
- LIF log2FC (Gene 3976): -1.84
- LIG1 log2FC (Gene 3978): 0.0377
- LIG3 log2FC (Gene 3980): -0.50
- LLGL2 log2FC (Gene 3993): -0.0661
- LRP5 log2FC (Gene 4041): -0.40
- MAD2L1 log2FC (Gene 4085): -0.14
- SMAD3 log2FC (Gene 4088): 0.24
- MCM3 log2FC (Gene 4172): 0.0559
- MCM5 log2FC (Gene 4174): 0.04
- MCM7 log2FC (Gene 4176): 0.08
- MDM2 log2FC (Gene 4193): -0.11
- MDM4 log2FC (Gene 4194): -0.14
- RAB8A log2FC (Gene 4218): -0.76
- MIF log2FC (Gene 4282): 0.23
- MKI67 log2FC (Gene 4288): 0.06
